Assay type in all cases: cell-based, human
For one assay, the system named is TrxR. The assay is described as follows: Western blot of TrxR expression in A549R cells. The conditions noted are these: different concentrations, 12 h. The source says: The elevated levels of TrxR in cancers, especially in non-small cell lung cancers, are responsible for drug resistance. The thioredoxin system has a significant influence on intracellular physiological processes, such as antioxidant defense, cell functions, cell apoptosis and cell proliferation. TrxR has previously been identified as a drug target. […] In addition, the expression levels of TrxR in A549R cells in response to the addition of complex 4 were also examined by Western blot analysis.
A549R cells were seeded into 10 cm tissue culture dishes (Corning), incubated for 24 h, and treated with complex 4 for 12 h. The cells were washed with ice-cold PBS and lysed by incubation in radio immune precipitation assay buffer (RIPA) and a protease inhibitor cocktail (Sigma) for 30 min on ice. The lysates were centrifuged at 15000 rpm for 15 min at 4 °C, and the protein concentrations were quantified by a BCA protein assay reagent kit (Sigma). The proteins were separated on precast NuPAGE 4% to 12% polyacrylamide gradient Bis–Tris gels (Invitrogen) under denaturing conditions, transferred to PVDF membranes (Invitrogen), and subjected to Western blot analyses. […] The bound immune complexes were detected using an ECL prime Western blot detection reagent (Amersham Inc., USA). […]
For orientation: In western blotting, separated proteins are transferred to a membrane and probed.

The subject of assay [1] is A549R cells. Kind of assay: Cell cycle analysis (PI, FACS). The conditions noted are these: 24 h. On the procedure:
Cell proliferation is activated under pathological conditions and plays a crucial role in cancer cell regeneration. Deregulated cell-cycle control is a fundamental aspect of cancer and the process is related to the proliferation and death of cancer cells. Therefore, the effect of cyclometalated complex 4 on cell cycles was investigated using fluorescence-activated cell sorting (FACS) analysis of the DNA content. […] A higher dose of complex 4 (2.0 μM) elicited a strong G2/M arrest of A549R cells, accounting for 46% of the cell population (control, 12.82%). The enrichment of the G2/M phase of the cell cycle of A549R cells may have led to their apoptosis by disrupting the cell cycle.
A549R cells were treated with different concentrations of complex 4 (i.e., 0.5, 1.0 and 2.0 μM) for 24 h. The cells were collected and fixed in 2 mL of 70% cold aqueous ethanol (v/v). After incubation, the cells were centrifuged and washed three times with cold PBS and resuspended in 0.5 mL of PBS. To a 0.5 mL cell sample, […] of RNase A (1 mg/mL in PBS) was added and incubated for 30 min at 37 °C; then, […] of a PI ([…] in PBS) solution was added after gentle mixing for 5 min at 37 °C in the dark. The samples were resuspended and 10,000 cells were analyzed for each sample by a BD FACS Calibur cytometer (Becton Dickinson, Heidelberg, Germany). The data were acquired and analyzed with ModFit LT 3.2.

For assay [2], the system named is A549R cells. Kind of assay: Mitochondrial membrane potential (JC-1). The conditions noted are these: different concentrations (0.5, 1.0, 2.0 μM), 24 h. The source says: Mitochondria are the principal organelles related to energy metabolism and ATP synthesis; consequently, resistance against chemotherapeutic drugs can often be traced to the mitochondria. […] Mitochondrial dysfunction is involved in apoptotic cell death, and the loss of mitochondrial membrane potential (MMP, ΔΨm) is a hallmark of mitochondrial dysfunction. […] Confocal microscopy and flow cytometry were used to confirm whether complex 4-induced apoptosis occurred by damaging mitochondria, and the cationic dye JC-1 was used as the MMP-sensitive probe.
A549R cells were cultured in 6-well tissue culture plates for 24 h and treated with complex 4 (0.5, 1.0 and 2.0 μM) for 24 h. After the treatment, the cells were collected and resuspended at 1 × 10^6 cells/mL in a pre-warmed staining working solution containing JC-1 (5 μg/mL) and incubated for 15 min at 37 °C. Subsequently, the cells were washed twice with pre-warmed PBS and analyzed immediately with a flow cytometer on a FACS Canto II (BD Biosciences, USA). Red and green mean fluorescence intensities were analyzed using FlowJo 7.6 software (Tree Star, OR, USA). […] After the treatment described above, the stained cells were visualized under an inverted fluorescence microscope (Zeiss Axio Observer D1). JC-1 fluorescence was measured with single excitation (488 nm) and dual emission (shift from green 530 nm to red 590 nm).

Assay [3] relates to cancer cell lines (HeLa, A549, A549R). Kind of assay: MTT cytotoxicity, all tested cancer cell lines taken together. To be noted: 48 h, read-out: IC50 toward all the tested cancer cell lines. As to the method: (§1) Compounds 1–4 were evaluated against three tumor cell lines derived from different tissues, including the cervix (HeLa), lung (A549) and cisplatin-resistant lung (A549R) tissues. For comparison, the cytotoxicity of cisplatin was also evaluated. As a control, the toxicities of the complexes were also tested against the normal human cell line (LO2).
(§2) The cytotoxicity of the ruthenium complexes and cisplatin were determined by an MTT assay. Briefly, cells were seeded into 96-well microtiter plates at 1 × 10^4 cells per well and grown overnight at 37 °C in a 5% CO2 incubator; then, different concentrations of the complexes in cell culture medium were added to the cultures. The plates were then incubated in an incubator for 48 h under the same conditions. The stock MTT dye solution (15 μL, 5 mg/mL) was added to each well. After 4 h of incubation, the cultures were removed and 150 μL of DMSO was added to each well. The optical density of each well was measured on a microplate spectrophotometer at a wavelength of 595 nm.

A further assay deals with HeLa. The assay is described as follows: MTT cytotoxicity assay, HeLa. The conditions noted are these: 48 h, mean ± SD of three experiments. On the procedure: as §1
(§3) The human cervix carcinoma cell line (HeLa), the lung carcinoma cell lines (A549 and A549R), and the human hepatocyte cell line (LO2) were obtained from the Experimental Animal Center at Sun Yat-Sen University (Guangzhou, China). The cells were maintained in Dulbecco’s modified Eagle’s medium (DMEM, Gibco BRL) or Roswell Park Memorial Institute 1640 (RPMI 1640, Gibco BRL) medium supplemented with 10% fetal bovine serum (FBS, Gibco BRL), 100 μg/mL streptomycin, and 100 U/mL penicillin (Gibco BRL) in a humidified incubator under 5% CO2 and 20% O2 at 37 °C. To maintain the resistant phenotype, A549R cells were incubated with 5 μM cisplatin and cultured in drug-free medium for at least a week before use.
as §2
A general note: Tetrazolium dyes change colour on reduction, which living cells bring about.

Another assay has as its system A549. Kind of assay: MTT cytotoxicity assay, A549. To be noted: A549, 48 h, mean ± SD of three experiments. As to the method:
as §1, §3, §2

Another assay relates to A549R. Kind of assay: MTT cytotoxicity assay, cisplatin-resistant A549R. To be noted: 48 h, mean ± SD of three experiments. As to the method: as §1, §3, §2

Experimental findings from publication PMC4725915, “Ruthenium(II) Complexes with 2-Phenylimidazo[4,5-f][1,10]phenanthroline Derivatives that Strongly Combat Cisplatin-Resistant Tumor Cells” (Scientific Reports, 2016) are described below.

As a reminder, the IC50 is the concentration at which inhibition is half-maximal.

On to Ru(phen)(bzq)(tbtfpip)(PF6) [Complex 4], for which the “expression levels of TrxR” value in the assay with TrxR is “downregulated”. Besides, in the assay on A549R cells [1] (2.0 μM, control 12.82%), the “G2/M share of the cell population” value amounted to 46%. Moreover, in the assay with A549R cells [1] (control 68.46), the “percentage of cells in the G0/G1 phase” value amounted to 30.87%. For the same substance, the “mitochondrial membrane potential (MMP)” value with A549R cells [2] is listed as “loss of MMP”. Besides, the IC50 in assay [3] was 0.8 to 2.4 µM; in the assay with HeLa, 2.4 ± 0.3 µM; in the assay on A549, 1 ± 0.2 µM; in the assay with A549R it was 0.8 ± 0.1 µM.
